# In patent publication US20120034210A1, “COMPOSITIONS FOR POTENTIATING APOPOSIS SIGNALS IN TUMOUR CELLS” (INSTITUT BERGONIE, priority 2008, published 2012):
# Entries after “also recorded” stand apart in the source; their conditions may differ.
# What was measured:
# Format in all cases: cell-based, human
# [1] = tested on: CD95; experiment: CD95 expression; settings: 2-APB or BAPTA-AM regimens
# Method: This technique allowed detecting the presence of a protein on the cell surface. All the steps took place at 4° C. so as to reduce membrane proteins endocytosis and loss of cell labelling.
# Plasma membrane of the cells (10^6 cells per marking) was saturated for 5 minutes in 1 ml PBS containing 1% (w/v) BSA (bovine serum albumin) and 1% (v/v) foetal veal serum (FVS). This solution was used for washings and antibody dilutions.
# The cells were incubated for 30 minutes with 50 μl primary antibody (anti-Fas DX2 clone at 10 μg/ml), washed twice with the PBS/BSA/FCS solution, then incubated with 50 μl of a secondary antibody coupled with phycoerythrin for 30 minutes. After 3 washings, the cells were re-suspended in 200 μl PBS/BSA/SVF and analysed immediately by flow cytometry (FACsCalibur, BD Biosciences). The fluorescence intensity was analysed with the Cellquest software.
# [2] = molecular target: caspase-8; experiment: Caspase-8 activation/cleavage
# [3] = tested on: DISC macro-complex (Fas/FADD/Caspase-8); experiment: DISC formation: Fas immunoprecipitation and Western blot; settings: vs untreated cells
# Method: Cells were incubated with 1 μg/ml APO1-3 for 30 minutes at 4° C. After washing, cells were incubated for 15 minutes at 4° C. (0 minutes) or at 37° C. (15 minutes) and then lysed for 30 minutes at 4° C. in a lysis buffer (25 mM HEPES pH 7.4, 1% Triton X-100, 150 mM NaCl, 2 mM EDTA, a cocktail including protease inhibitors (Sigma)). The lysed cells were then centrifugated for 15 minutes at 15000 rpm in order to eliminate genomic DNA, and the supernatant was kept. The sepharose beads which were coupled with protein A were added to the lysate and the mixture was incubated for 2 hours. The beads were recovered, washed intensively and the immunoprecipitated proteins were re-suspended in a denaturing and reducing buffer (0.01M Tris-HCl pH6.8, 10% glycerol (v/v), 85 mM sodium dodecyl sulfate (SDS), 5% (v/v) […] and 0.005% (w/v) bromophenol blue) then heated at 100° C. for 5 minutes. The samples were deposited in an acrylamide/Bisacrylamide gel and separated by electrophoresis. The proteins were transferred from the gel into a nitrocellulose membrane using a semi-dry medium transfer technique for 2 hours at constant amperage (0.8 mA/cm^2). […] After transfer, the nitrocellulose membrane was saturated with proteins for 30 minutes with a TBST buffer (50 mM Tris pH=8, 0.15M sodium chloride, 0.05% (v/v) Tween-20) containing 5% (w/v) skimmed powdered milk (TBSTM). After washing with TBST, the membrane was incubated for 2 hours with the primary antibody in TBST. The membrane was washed intensively then incubated for one hour with TBST containing the secondary peroxidase-coupled antibody. […] This solution contained a substrate metabolised by peroxidase to yield a luminescent compound, which allowed marking a radiographic film (Amersham).
# [4] = tested on: CD95; experiment: CD95 capping (CD95-CAP), fluorescence confocal microscopy; settings: leukemic cell lines; culture up to 24 hours
# Method: The cells were left to adhere on a slide pre-treated with poly-L-lysin (ESCO, VWR) for 5 minutes then incubated with the different reactants. The cells activated with the anti-Fas APO1-3 agonist antibody were washed and marked directly with the anti-mouse secondary antibody coupled with Alexa555 fluorochrome. The cells incubated with Rituximab (anti-CD20) were washed in a cold PBS buffer then fixed with a PBS/4% PFA (paraformaldehyde) solution for 15 min. […] The cells were washed in PBS medium then the slide was dried and the cells were placed in a mounting medium, Fluoroprep (Biomerieux) and analysed by fluorescence confocal microscopy (LSM SP5, Leica, Germany) with an x63 zoom. The DAPI (200 ng/ml) allowed colouring the nuclei.
# [5] = tested on: T and B leukemia/lymphoma cell lines and activated PBLs treated with FasL; experiment: Fas/CD95-mediated cell death (MTT test)
# Method: 2 to 4.10^4 cells were deposited in wells in a 96-well plate. The cells were incubated, in the presence of the different reactants for the times specified, at 37° C. in a final volume of 100 or 200 μl.
# The MTT test enabled to measure the activity of a mitochondrial enzyme, the dehydrogenase succinate which transforms MTT (or 3-(4,5-dimethylthiazol-2-yl)-2,5-diphenyltetrazolium) bromide originally yellow in colour and soluble, into blue formazan crystals, insoluble in aqueous phase. Upon completion of the different treatments, the living cells were quantified by adding in each well 15 μl PBS (Phosphate Buffered Saline) containing 5 mg/ml MTT. […] Spectrophotometric reading of absorbance was done at 570 nm. The measurement of the optical density is directly proportional to the number of living cells and the percentage of cell death was calculated with the following formula: 100-[(DO treated cells/DO non-treated cells)*100].
smiles,measurement,setting,value
"CC(=O)OCOC(=O)CN(CC(=O)OCOC(C)=O)c1ccccc1OCCOc1ccccc1N(CC(=O)OCOC(C)=O)CC(=O)OCOC(C)=O [BAPTA-AM, 1,2-bis-(o-Aminophenoxy)ethane-N,N,N′,N′-tetraacetic tetra-(acetoxymethyl) acid Ester]",expression of CD95,[1],did not modify the expression of CD95
same,kinetic of caspase-8 cleavage upon CD95L,[2]; T and B-cell lines,accelerated the cleavage of the initiator caspase-8
same,caspase-8 activation or mitochondrial depolarization by the agent alone,"[2]; during 60 minutes treatment, no CD95L",no trace of caspase-8 activation or mitochondrial depolarization was detected
same,DISC formation / FADD recruitment upon CD95 stimulation,"[3]; H9, Jurkat, activated PBTs, non-cytotoxic concentrations",dramatically improved the DISC formation; also recorded: induction of DISC formation
same,formation of the DISC macro-complex,"[3]; H9 cells, BAPTA-AM 1-10 μM or ionomycine 1 μM pre-incubation, then anti-Fas APO1-3 1 μg/ml 15 min 37° C.",enhanced formation of the DISC macro-complex
same,CD95-CAP formation,[4],drives CD95-CAP
same,sensitisation to the Fas-mediated apoptotic signal (% cell death),"[5]; BAPTA-AM 1 μM pre-incubation then FasL, leukemia/lymphoma cell lines and activated PBLs",sensitised to the Fas-mediated apoptotic signal; also recorded: increase in percentage of cell death
same,sensitisation to the Fas-mediated apoptotic signal (% cell death),"[5]; BAPTA-AM 1 μM then FasL, BL2 cell line devoid of endogenous Fas",have not been sensitised
same,CD95-mediated apoptotic signal in CD95-resistant cells,"[5]; Jurkat-CD95Q257K, pre-incubation with non-cytotoxic doses",restored the CD95-mediated apoptotic signal at a level comparable to the parental cell line
same,apoptotic signal by the agent alone,"[5]; leukemic cell lines, long-term culture up to 24 hours, no CD95L",did not trigger the apoptotic signal
